Measurements as given in patent US12403112B2, “Agent for preventing, ameliorating, or treating periodontal disease” (WAKUNAGA PHARMACEUTICAL CO., LTD., priority 2019, dated 2025).

How the values were obtained:
Format in all cases: cell-based
[1] = test system: LL-37 gene in human gingival epithelial Ca9-22 cells; assay: Effect of promoting expression of LL-37 gene (quantitative real-time PCR); details: treatment for 24 hours, absence of HKPG, compared to untreated, FIG. 1
Experimental: (§1) Test solutions for evaluating the biological activities were prepared as follows. In evaluating the biological activities, all test solutions were prepared at the time of use. • (a) Approximately 1 mg of SAC and S1PC (cis:trans=15:85) were each precisely weighed and dissolved in 0.6 mL of purified water (10 mM). This solution was used as a stock solution and diluted appropriately to be subjected to the test. • (b) SAMC was dissolved in a culture medium for cell culture (containing 10% bovine serum albumin, […] penicillin, and 100 μg/mL streptomycin) (1 mM). This solution was used as a stock solution and diluted to be subjected to the test. (2) Cells for Evaluation Test
Test cells (human gingival epithelial Ca9-22 cells) were purchased from the National Institute of Biomedical Innovation, Health and Nutrition. […]
(§2) Using a reverse transcription kit (PrimeScript RT reagent kit with gDNA Eraser, RR047A, TAKARA), degradation of DNA remaining in total RNA and reverse transcription reaction from RNA to complementary DNA (cDNA) were carried out. Next, cDNA derived from the target gene was amplified by quantitative real-time polymerase chain reaction (PCR) using primers specific for LL-37 or hBD3 gene. The relative expression levels of LL-37 and hBD3 genes were calculated using beta-actin as an internal reference gene.

[2] = test system: hBD3 gene in human gingival epithelial Ca9-22 cells; assay: Effect of promoting expression of hBD3 gene (quantitative real-time PCR)
Experimental: as §1
Test cells (human gingival epithelial Ca9-22 cells) were purchased from the National Institute of Biomedical Innovation, Health and Nutrition. Immediately after purchasing, the culturing was initiated (5% CO2, 37° C.) Subculturing was carried out two or three times per week.
The Ca9-22 cells were prepared to 1×10^5 cells/mL in a 10% serum-containing medium, seeded in a 12-well plate at 1 mL respectively, and cultured for 24-48 hours. Assay was carried out when the percentage of cells in each well reached nearly 100%. In the presence or absence of heat-sterilized Porphyromonas gingivalis (HKPG), a reagent was added and the culturing was continued for 24 hours. After completion of culturing, the culture supernatant was removed and […] was added, followed by treatment at room temperature for 5 minutes. RIPA buffer was collected from each well into tubes and chloroform was added (40 μL/tube), followed by treatment at room temperature for 2-3 minutes. After centrifugation (13,000 g, 5 min, 4° C.), the supernatant was transferred to a new tube and 2-propanol was added thereto (80 μL/tube), followed by treatment at room temperature for 10 minutes. After centrifugation (13,000 g, 10 min, 4° C.), the supernatant was removed, and 75% ethanol was added to the precipitate (200 μL/tube), and further centrifugation (13,000 g, 10 min, 4° C.) was carried out. After centrifugation (13,000 g, 10 min, 4° C.), the supernatant was removed, and the dried precipitate (total RNA) was dissolved in sterile water and cryopreserved at −80° C. until use.
as §2

[3] = test system: ICAM-1 protein in human gingival epithelial Ca9-22 cells; assay: Effect of down-regulating expression of ICAM-1 induced by TNF-α (Western blot); details: co-treatment with TNF-α, 24 hours, FIG. 3
Experimental: Test solutions for evaluating the biological activities were prepared as follows. In evaluating the biological activities, all test solutions were prepared at the time of use. • (a) Approximately 1 mg of SAC and […] (cis:trans=15:85) were each precisely weighed and dissolved in 0.6 mL of purified water (10 mM). This solution was used as a stock solution and diluted appropriately to be subjected to the test. • (b) SAMC was dissolved in a culture medium for cell culture (containing 10% bovine serum albumin, […] penicillin, and 100 μg/mL streptomycin) (1 mM). This solution was used as a stock solution and diluted to be subjected to the test. (2) Cells for Evaluation Test Test cells (human gingival epithelial Ca9-22 cells) were purchased from the National Institute of Biomedical Innovation, Health and Nutrition. Immediately after purchasing, the culturing was initiated (5% CO2, 37° C.) Subculturing was carried out two or three times per week. […] A portion of the above protein supernatant was collected and the total protein concentration was calculated by BCA method. […] After reaction treatment, the proteins were washed with Tris-buffered saline three times, an HRP substrate was added thereto, and the luminescence intensity was detected by a luminoimage analyzer.

[4] = test system: IL-6 release from human gingival epithelial Ca9-22 cells; assay: Effect of reducing release of IL-6 induced by TNF-α (ELISA); details: co-treatment with TNF-α, 6 hours, FIGS. 4 and 5
Experimental: Test solutions for evaluating the biological activities were prepared as follows. In evaluating the biological activities, all test solutions were prepared at the time of use. • (a) Approximately 1 mg of SAC and […] (cis:trans=15:85) were each precisely weighed and dissolved in 0.6 mL of purified water (10 mM). This solution was used as a stock solution and diluted appropriately to be subjected to the test. • (b) SAMC was dissolved in a culture medium for cell culture (containing 10% bovine serum albumin, […] penicillin, and 100 μg/mL streptomycin) (1 mM). This solution was used as a stock solution and diluted to be subjected to the test. (2) Cells for Evaluation Test Test cells (human gingival epithelial Ca9-22 cells) were purchased from the National Institute of Biomedical Innovation, Health and Nutrition. Immediately after purchasing, the culturing was initiated (5% CO2, 37° C.) Subculturing was carried out two or three times per week. […] IL-6 ELISA Ready-SET-Go! Kit was purchased from eBioscience, Inc. to measure the amount of IL-6 produced. […] A horseradish peroxidase (HRP)-labeled secondary antibody and chromogenic substrate were added thereto and then the absorbance was measured by using a plate reader. […] After completion of culturing, the supernatant was collected and the concentration of IL-6 was measured by ELISA.

[5] = 300 μM, presence of 10^7/mL HKPG (heat-sterilized Porphyromonas gingivalis), FIG. 2
[6] = treatment for 24 hours, absence of HKPG

SMILES | expression level of LL-37 gene [1] | expression level of hBD3 gene [2, 5] | expression level of hBD3 gene [2, 6] | expression of ICAM-1 protein induced by TNF-α [3] | amount of released IL-6 induced by TNF-α [4]
CC=CSC[C@H](N)C(=O)O [S1PC, S-1-propenylcysteine] | significantly increased | significantly increased | no change | concentration-dependently down-regulated | –
C=CCSC[C@H](N)C(=O)O [SAC, S-allylcysteine] | significantly increased | significantly increased | no change | – | concentration-dependently reduced
C=CCSSCC(N)C(=O)O (stereo not drawn) [SAMC, S-allylmercaptocysteine] | – | – | – | – | concentration-dependently reduced
